Test results as given in US10065934B2, “Substituted urea derivatives and pharmaceutical uses thereof” (SUNSHINE LAKE PHARMA CO., LTD., priority 2014, dated 2018).
Where two headings read alike, the source gives them in different places. One block for each compound: values may come before it.

Columns and labels:
FLT3 kinase = target: T1, FLT3 kinase (Homo sapiens, UniProt P36888); assay: In vitro enzymatic inhibitory activity (kinase reaction, FAM-labeled peptide); format: biochemical; settings: in vitro enzymatic inhibition
T1 sequence (P36888 27-993): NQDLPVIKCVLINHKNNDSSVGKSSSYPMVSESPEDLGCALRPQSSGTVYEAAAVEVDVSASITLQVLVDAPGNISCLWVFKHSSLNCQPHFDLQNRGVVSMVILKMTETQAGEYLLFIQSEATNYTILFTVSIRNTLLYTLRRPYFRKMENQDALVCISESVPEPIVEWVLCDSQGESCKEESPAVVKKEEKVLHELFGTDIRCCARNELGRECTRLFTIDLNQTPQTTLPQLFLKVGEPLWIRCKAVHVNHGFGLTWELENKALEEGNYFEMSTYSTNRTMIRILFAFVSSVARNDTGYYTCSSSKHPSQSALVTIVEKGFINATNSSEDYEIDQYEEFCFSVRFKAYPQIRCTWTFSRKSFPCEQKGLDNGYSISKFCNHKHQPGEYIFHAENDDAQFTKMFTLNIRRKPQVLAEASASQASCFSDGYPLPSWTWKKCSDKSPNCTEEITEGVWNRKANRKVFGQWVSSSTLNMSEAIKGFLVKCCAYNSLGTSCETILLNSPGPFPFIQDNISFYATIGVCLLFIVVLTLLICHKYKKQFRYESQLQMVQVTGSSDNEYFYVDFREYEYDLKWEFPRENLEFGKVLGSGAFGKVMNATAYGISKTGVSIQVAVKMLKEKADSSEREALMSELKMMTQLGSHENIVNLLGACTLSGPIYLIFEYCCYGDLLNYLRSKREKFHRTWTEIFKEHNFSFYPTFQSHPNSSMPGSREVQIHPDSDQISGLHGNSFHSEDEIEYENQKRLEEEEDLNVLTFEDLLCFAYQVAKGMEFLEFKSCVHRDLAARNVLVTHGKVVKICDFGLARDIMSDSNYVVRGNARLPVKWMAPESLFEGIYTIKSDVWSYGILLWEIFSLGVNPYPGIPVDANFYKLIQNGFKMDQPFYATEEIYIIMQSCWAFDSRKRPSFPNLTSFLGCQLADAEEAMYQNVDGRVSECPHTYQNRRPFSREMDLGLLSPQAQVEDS

MV-4-11 cell = assay: In vitro cytology inhibitory activity (MV-4-11 cell proliferation, cell viability luminescence); format: cell-based; settings: Homo sapiens, MV4-11; MV-4-11 cells, 72 h incubation
Method: Cell assay condition was shown below:
a. A complete medium was prepared and mixed well. b. Cell was recovered, and cell lines of between about two generations in good condition of growth were selected. c. The cell culture flasks were removed from the incubator, and the labeled cell name on the bottles, culture medium type and cell algebra were checked. d. The cell suspension was pipette into a centrifuge tube, and centrifuged at 800-1000 rpm for 3-5 minutes. e. Cell supernatant of the centrifuge tube was aspirated. f. Appropriate volume of culture medium was added into the centrifuge tube, and the cells were resuspended by gentle pipetting uniform. g. Vi-Cell XR cytometer was used for count. h. The cell suspension was adjusted to the appropriate concentration. i. The cell suspension was added to the bottom wall of the white 96-well plate, 100 microliters/well. Cells name, kind of board density and date were detailed labeled, and the culture plate was placed in CO2 incubator overnight.
2. Preparation and Addition of the Test Compounds
i) Preparation of test compound plates by diluting to 10 concentrations with DMSO: first, the test compound stock solution was prepared by dissolving a weighed compound in DMSO to a concentration of 10 mM, and then diluted to the concentration of 4 mM, which was then diluted to the concentration of 0.4 mM used as the highest concentration for testing with DMSO. The highest concentration was sequentially followed by 3-fold dilution for a total of 10 concentrations. Staurosporine was the positive control drug. ii) Addition of test compounds: a. 0.5 μL of test compound prepared above in compound plate was added into the cell culture plate that had been incubated overnight. Then the culture plate was incubated in an incubator at 37° C. for 72 hours.
3. Detection and Analysis
a. 72 hours after the compound treatment, cells was observed under an inverted microscope morphology, and cell growth state in DMSO control well was normal, there was no contamination. b. The cell culture plate was placed in equilibrium at room temperature for 30 minutes. c. The cell viability detection reagent at 100 μL/well was placed into culture plate. d. The mixture in culture plate was mixed two minutes in the vibration plate machine to induce cell lysis. e. 96-well plate was placed for 10 minutes at room temperature, making it stable luminescent signal. f. White base film was pasted on the bottom of the culture plate, and the plate was tested by using Flexstation3 (related to: light, integration time 500 ms). g. Experimental results were recorded and analyzed.

[1] = Evaluation of pharmacokinetic activity in male SD rats (iv and oral); format: in vivo; settings: rat, plasma; for Cmax: read-out: Cmax
Method: 1. Preparation of the Test Compound Solutions
The test compound solutions were prepared using appropriate amounts of 5% DMSO, 5% KolliphorHS15 and 90% Saline to dissolve each compound completely.
140-190 g male SD rats were randomly divided into two groups. One group was administered through intravenous drug delivery with the dosage of 1.0 or 2.0 mg/kg, and the other group was administered by oral with the dosage of 5.0 mg/kg. For intravenous administration, caudal vein blood samples at the time points of 0.0833, 0.25, 0.5, 1.0, 2.0, 4.0, 6.0, 8.0 and 24 h were collected after drug administration (the time point of drug administration was set as 0 h); and for oral administration, caudal vein blood samples at the time points of 0.25, 0.5, 1.0, 2.0, 4.0, 6.0, 8.0 and 24 h were collected after drug administration (the time point of drug administration was set as 0 h). Appropriate range of standard curve was established according to the sample concentration, and the test compound concentrations in plasma sample were measured by LC-MS/MS analysis. Pharmacokinetic parameters were calculated by non-compartmental method using WinNonLin 6.3 software based on drug concentration-time curves.

SMILES: CC(C)(C)c1cc(NC(=O)Nc2ccc(C#Cc3ccc(OCCCN4CCOCC4)c(F)c3)cc2)no1 [Example 1, 1-(5-(tert-Butyl)isoxazol-3-yl)-3-(4-((3-fluoro-4-(3-morpholinopropoxy)phenyl)ethynyl)phenyl)urea]
IC50 (FLT3 kinase): 115 nM

SMILES: CC(C)(C)c1cc(NC(=O)Nc2ccc(C#Cc3ccc(OCCCN4CCOCC4)c(Cl)c3)cc2)no1 [Example 2, 1-(5-(tert-Butyl)isoxazol-3-yl)-3-(4-((3-chloro-4-(3-morpholinopropoxy)phenyl)ethynyl)phenyl) urea]
IC50 (FLT3 kinase): 75 nM

SMILES: CC(C)(C)c1cc(NC(=O)Nc2ccc(C#Cc3ccc(OCCCN4CCOCC4)c(C(F)(F)F)c3)cc2)no1 [Example 3, 1-(5-(tert-Butyl)isoxazol-3-yl)-3-(4-((4-(3-morpholinopropoxy)-3-(trifluoromethyl)phenyl)ethynyl)phenyl)urea]
IC50 (FLT3 kinase): 62 nM

SMILES: CC(C)(C)c1cc(NC(=O)Nc2ccc(C#Cc3ccc(OCCCN4CCOCC4)cc3Cl)cc2)no1 [Example 5, 1-(5-(tert-Butyl)isoxazol-3-yl)-3-(4-((2-chloro-4-(3-morpholinopropoxy)phenyl)ethynyl)phenyl)urea]
IC50 (FLT3 kinase): 189 nM

SMILES: CC(C)(C)c1cc(NC(=O)Nc2ccc(C#Cc3cnc4ccc(OCCCN5CCOCC5)nn34)cc2)no1 [Example 7, 1-(5-(tert-Butyl)isoxazol-3-yl)-3-(4-((6-(3-morpholinopropoxy)imidazo[1,2-b]pyridazin-3-yl)ethynyl)phenyl)urea]
IC50 (MV-4-11 cell): 3.2 nM

SMILES: CC(C)(C)c1cc(NC(=O)Nc2ccc(C#Cc3cnc4c(OCCN5CCOCC5)ccnn34)cc2)no1 [Example 9, 1-(5-(tert-Butyl)isoxazol-3-yl)-3-(4-((8-(2-morpholinoethoxy)imidazo[1,2-b]pyridazin-3-yl)ethynyl)phenyl)urea]
AUC(0-inf) ([1]; iv, 1 mg/kg): 1390 ng·h/mL
AUC(0-t) ([1]; iv, 1 mg/kg): 1330 ng·h/mL
Tmax ([1]; iv, 1 mg/kg): 0.083 h
half-life ([1]; iv, 1 mg/kg): 1.7 h
Cmax ([1]; iv, 1 mg/kg): 793 ng/mL
Vd ([1]; iv, 1 mg/kg, read-out: Vss): 1.62 L/kg
bioavailability ([1]; po 5 mg/kg vs iv 1 or 2 mg/kg): 116%
AUC(0-inf) ([1]; po, 5 mg/kg): 8030 ng·h/mL
AUC(0-t) ([1]; po, 5 mg/kg): 8010 ng·h/mL
Tmax ([1]; po, 5 mg/kg): 2.67 h
half-life ([1]; po, 5 mg/kg): 2.85 h
Cmax ([1]; po, 5 mg/kg): 1090 ng/mL

SMILES: CC(C)(C)c1cc(NC(=O)Nc2ccc(C#Cc3ccc(OCCCN4C[C@@H]5OCCO[C@@H]5C4)cc3)cc2)no1 [Example 11, 1-(5-(tert-butyl)isoxazol-3-yl)-3-(4-((4-(3-((4aR,7aS)-tetrahydro-2H-[1,4]dioxino[2,3-c]pyrrol-6(3H)-yl)propoxy)phenyl)ethynyl)phenyl)urea]
IC50 (FLT3 kinase): 169 nM

SMILES: CC(C)(C)c1cc(NC(=O)Nc2ccc(C#Cc3ccc(OCCCN4CCOCC4)nc3)cc2)no1 [Example 17, 1-(5-(tert-Butyl)isoxazol-3-yl)-3-(4-((6-(3-morpholinopropoxy)pyridin-3-yl)ethynyl)phenyl) urea]
IC50 (MV-4-11 cell): 11.7 nM

SMILES: CC(C)(C)c1cc(NC(=O)Nc2ccc(C#Cc3ccc(OCCCN4CCC5(COC5)C4)cc3)cc2)no1 [Example 19, 1-(4-((4-(3-(2-Oxa-6-azaspiro[3.4]octan-6-yl)propoxy)phenyl)ethynyl)phenyl)-3-(5-(tert-butyl)isoxazol-3-yl)urea]
IC50 (MV-4-11 cell): 13.8 nM

SMILES: CC(C)(C)c1cc(NC(=O)Nc2ccc(C#Cc3ccc(OCCCN4CCOCC4)cc3)cc2)no1 [Example 21, 1-(5-(tert-Butyl)isoxazol-3-yl)-3-(4-((4-(3-morpholinopropoxy)phenyl)ethynyl)phenyl)urea]
IC50 (MV-4-11 cell): 2.8 nM

SMILES: CC(C)(C)c1cc(NC(=O)Nc2ccc(C#Cc3ccc(OCCCN4CCOCC4)cc3)cc2F)no1 [Example 81, 1-(5-(tert-Butyl)isoxazol-3-yl)-3-(2-fluoro-4-((4-(3-morpholinopropoxy)phenyl)ethynyl)phenyl)urea]
IC50 (MV-4-11 cell): 4.7 nM

SMILES: CC(C)(C)c1cc(NC(=O)Nc2ccc(C#Cc3ccc(OCCC[N+]4([O-])CCOCC4)cc3)cc2)no1 [Example 82, 4-(3-(4-((4-(3-(5-(tert-Butyl)isoxazol-3-yl)ureido)phenyl)ethynyl)phenoxy)propyl)morpholine 4-oxide]
IC50 (MV-4-11 cell): 3 nM

Other lines, results leading:

IC50 (MV-4-11 cell): 2.3 nM
SMILES: CC(C)(C)c1cc(NC(=O)Nc2ccc(C#Cc3ccc(OCCC[N+]4([O-])CCOCC4)cc3F)cc2)no1 [Example 83, 4-(3-(4-((4-(3-(5-(tert-Butyl)isoxazol-3-yl)ureido)phenyl)ethynyl)-3-fluorophenoxy)propyl) morpholine 4-oxide]

IC50 (MV-4-11 cell): 2.1 nM
SMILES: CC(C)(CO)c1cc(NC(=O)Nc2ccc(C#Cc3ccc(OCCCN4CCOCC4)cc3)cc2)no1 [Example 84, 1-(5-(1-Hydroxy-2-methylpropan-2-yl)isoxazol-3-yl)-3-(4-((4-(3-morpholinopropoxy)phenyl)ethynyl)phenyl)urea]

IC50 (MV-4-11 cell): 1.6 nM
SMILES: CC(C)(CO)c1cc(NC(=O)Nc2ccc(C#Cc3ccc(OCCCN4CCOCC4)cc3F)cc2)no1 [Example 85, 1-(4-((2-Fluoro-4-(3-morpholinopropoxy)phenyl)ethynyl)phenyl)-3-(5-(1-hydroxy-2-methylpropan-2-yl)isoxazol-3-yl)urea]

IC50 (MV-4-11 cell): 0.9 nM
SMILES: CC(C)(C)c1cc(NC(=O)Nc2ccc(C#Cc3ccc(OCCCN4CCOCC4)c(O)c3)cc2)no1 [Example 86, 1-(5-(tert-Butyl)isoxazol-3-yl)-3-(4-((3-hydroxy-4-(3-morpholinopropoxy)phenyl)ethynyl)phenyl)urea]

IC50 (MV-4-11 cell): 25.5 nM
SMILES: CC(C)(C)c1cc(NC(=O)Nc2ccc(C#Cc3ccc(OCCCN4CCOCC4)cc3)cc2O)no1 [Example 87, 1-(5-(tert-butyl)isoxazol-3-yl)-3-(2-hydroxy-4-((4-(3-morpholinopropoxy)phenyl)ethynyl)phenyl)urea]

IC50 (MV-4-11 cell): 1.8 nM
SMILES: CC(C)(CO)c1cc(NC(=O)Nc2ccc(C#Cc3ccc(OCCC[N+]4([O-])CCOCC4)cc3)cc2)no1 [Example 88, 4-(3-(4-((4-(3-(5-(1-Hydroxy-2-methylpropan-2-yl)isoxazol-3-yl)ureido)phenyl)ethynyl)phenoxy)propyl)morpholine 4-oxide]

IC50 (MV-4-11 cell): 4.8 nM
SMILES: CC(C)(CO)c1cc(NC(=O)Nc2ccc(C#Cc3ccc(OCCC[N+]4([O-])CCOCC4)cc3F)cc2)no1 [Example 89, 4-(3-(3-Fluoro-4-((4-(3-(5-(1-hydroxy-2-methylpropan-2-yl)isoxazol-3-yl)ureido)phenyl)ethynyl)phenoxy)propyl)morpholine 4-oxide]
